From patent US20120077673A1, “Fungicidal Compositions and Methods of Use” (priority 2010, published 2012) come the findings set out here.

This assay concerns Pythium. Kind of assay: Corn hybrids greenhouse trial, Pythium-infected seeds, seed treatment (Example 4). Type of assay: in vivo. The source says: Concentrations and compositions of triadimenol, metalaxyl, and saponin are the same as given in Example 1. The data of TABLE 4 are shown graphically in FIGS. 4A and 4B. As shown by TABLE 4 and FIGS. 4A and 4B, pre-treatment of both varieties of corn seeds with 1 GA/100 Kg metalaxyl and 0.6 GA/100 Kg yielded counts similar to those achieved from pre-treatment of seeds with either 2 GA/100 Kg metalaxyl (the industry standard dose for corn) or 7.5 GA/100 Kg metalaxyl.

Where [1] appears, read: Metalaxyl 7.5 GA/100 Kg, Day 14.

As for `COCC(=O)N(c1c(C)cccc1C)C(C)C(=O)OC` (stereo not drawn) [Metalaxyl], the “Count, Hybrid A” value runs as follows: (Metalaxyl 2 GA/100 Kg, Day 2) 92; (Metalaxyl 2 GA/100 Kg, Day 7) 98; (Metalaxyl 2 GA/100 Kg, Day 14) 98; (Metalaxyl 7.5 GA/100 Kg, Day 2) 94; (Metalaxyl 7.5 GA/100 Kg, Day 7) 96; under setting [1], 96. The “Count, Hybrid B” value is, setting by setting: (Metalaxyl 2 GA/100 Kg, Day 2) 74; (Metalaxyl 2 GA/100 Kg, Day 7) 88; (Metalaxyl 2 GA/100 Kg, Day 14) 88; (Metalaxyl 7.5 GA/100 Kg, Day 2) 64; (Metalaxyl 7.5 GA/100 Kg, Day 7) 94; under setting [1], 98.
